Type in all cases: cell-based
Data set [1] concerns 2H4 cells. The data set can be described thus: IL-2 Luc LTT: evaluation of chemical substance in 2H4 cells. The note with it: for IL-2 Luc LTT: 1 h chemical, then 25 nM PMA and 1 μM ionomycin 24 h, class from Min % suppression (nIL2LA) and Min Inh-GAPLA. The procedure: (§1) 2H4 cells were established from Jurkat cells according to the method described in PTL 1. First, for the preparation of 2H4 cells, a plasmid having SLG introduced downstream of the IL-2 promoter, a plasmid having SLR introduced downstream of the G3PDH promoter, and a plasmid having SLO introduced downstream of the INF-γ promoter were prepared as internal standards. These plasmids contained a resistance gene for hygromycin B, puromycin, and neomycin downstream of SLG, SLR, and SLO, respectively. The conditions for drug selection after transfection of the host Jurkat cells were as follows: in the primary selection, the cells were cultured for 1 week in the presence of a drug. In the secondary selection culture, the cells that survived in the primary selection culture were seeded in a 96-well plate at 1 cell/well or 200 cells/well, and cultured for 2 weeks under the same drug conditions. After the secondary selection culture, the cells were subjected to clone selection from the two points of signal intensity and signal induction by drug treatment. The G3PDH promoter SLR was first introduced to establish monochromatic stable cell line Jurkat: G3PDH-SLR #14D1 cells. These cells were used as the parent cell line to introduce the INF-γ promoter SLO, thereby establishing bichromatic stable cell line Jurkat: INFγ-SLO/G3PDH-SLR #2B12 cells. Subsequently, the obtained cells were used as a parent cell line to introduce the IL-2 promoter SLG, thereby establishing trichromatic stable cell line Jurkat IL-2-SLG/INFγ-SLO/G3PDH-SLR #2H4 cells.
The chemical substances listed in Table 1 were evaluated using 2H4 cells. 2H4 cells were seeded in a 96-well plate at 1×10^4/well and treated with each chemical substance for 1 hour, followed by incubating the cells with 25 nM PMA and 1 μM ionomycin for 24 hours. After 24 hours from the treatment with PMA and ionomycin, Tripluck Assay Reagent (manufactured by Toyobo Co., Ltd.) was added, and the amount of luminescence was measured with a Phelios microplate luminometer (manufactured by Atto Corporation). For control, 2H4 cells untreated with a chemical substance were also examined in the same manner. The amount of luminescence of SLG luciferase activity (IL2LA), SLR luciferase activity (GAPLA), and SLO luciferase activity (IFNLA) was measured, and IL-2LA and IFNLA were each normalized by GAPLA and determined to be nIL2LA and nIFNLA, respectively. Thereafter, for the concentration of each chemical substance, “% suppression” and “Inh-GAPLA” were determined according to the following formulas (1) and (2), and the chemical substances were evaluated by using their minimum value (Min % suppression, Min Inh-GAPLA).
In the evaluation, for control, PMA/ionomycin-treated 2H4 cells and PMA/ionomycin-untreated 2H4 cells were also measured for nIL2LA.
(§2) % suppression={(nIL2LA in 2H4 cells untreated with a chemical substance)−(nIL2LA in 2H4 cells treated with a chemical substance)}×100/(nIL2LA in 2H4 cells untreated with a chemical substance) ---(1) Inh-GAPLA=(GAPLA in 2H4 cells treated with a chemical substance)/(GAPLA in 2H4 cells untreated with a chemical substance) ---(2)

Data set [2] relates to 2H4 cells. The data set can be described thus: IL-2 Luc assay: evaluation of chemical substance in 2H4 cells. The conditions noted are these: for IL-2 Luc Assay: 1 h chemical, then PMA/ionomycin, luminescence after six hours, class from Min % suppression of nIL2LA. The procedure:
as §1, §2
The chemical substances listed in Table 1 were evaluated using 2H4 cells. 2H4 cells were seeded in a 96-well plate at 2×10^5 cells/50 μl/well and treated with each chemical substance for 1 hour, followed by incubating the cells with 25 nM PMA and 1 µM ionomycin […]. After six hours from the treatment with PMA and ionomycin, Tripluc: Assay Reagent (manufactured by Toyobo Co., Ltd.) was added, and the amount of luminescence was measured with a Phelios microplate luminometer (manufactured by Atto Corporation). For control, 2H4 cells untreated with a chemical substance were also examined in the same manner. The amount of luminescence of SLG luciferase activity (IL2LA), SLR luciferase activity (GAPLA), and SLO luciferase activity (IFNLA) was measured, and IL-2LA and IFNLA were each normalized by GAPLA and determined to be nIL2LA and nIFNLA, respectively. Thereafter, for the concentration of each chemical substance, the value of suppression was calculated according to formula (1) above, and the chemical substances were evaluated by using their minimum value (Min suppression).

For data set [3], the system named is 2H4 cells. The data set can be described thus: Evaluation of combination of IL-2 Luc LTT and IL-2 Luc assay. On the set-up: key: Positive (Pos): If the result is either LCT in the IL-2 Luc LTT or S in the IL-2 Luc assay, or both, the chemical substance is determined to be an immunosuppressive substance.; Negative (Neg): In the case other than the above, the chemical substance is determined to be a non-immunosuppressive substance. The note with it: LCT in IL-2 Luc LTT or S in IL-2 Luc assay = Pos. The procedure:
Positive (Pos): If the result is either LCT in the IL-2 Luc LTT or S in the IL-2 Luc assay, or both, the chemical substance is determined to be an immunosuppressive substance. Negative (Neg): In the case other than the above, the chemical substance is determined to be a non-immunosuppressive substance.

Structures can show the parent of a compound that is named as a salt.

In the case of `COc1cccc2c1C(=O)c1c(O)c3c(c(O)c1C2=O)C[C@@](O)(C(=O)CO)C[C@@H]3O[C@H]1C[C@H](N)[C@H](O)[C@H](C)O1` [Doxorubicin hydrochloride], the “IL-2 Luc LTT” value with 2H4 cells [1] was “LCT (Min % suppression ≤−35 and Min Inh-GAPLA <0.7: Leukocyte toxic (denoted as “LCT”; determined to have cell growth inhibition action and/or metabolic activity inhibition action))”. In addition, in the data set with 2H4 cells [2], the “IL-2 Luc Assay” value is recorded as “S (Min %; suppression ≥35: Suppression (denoted as “S”; determined to have immunosuppressive action))”. In the data set with 2H4 cells [3], the “Evaluation of Combination” value is recorded as “Pos”.
For the molecule `Nc1nc(F)nc2c1ncn2[C@@H]1O[C@H](CO)[C@@H](O)[C@@H]1O` [Fludarabine], the “IL-2 Luc LTT” value in the data set with 2H4 cells [1] is “LCT (Min % suppression ≤−35 and Min Inh-GAPLA <0.7: Leukocyte toxic (denoted as “LCT”; determined to have cell growth inhibition action and/or metabolic activity inhibition action))”. Besides, the “IL-2 Luc Assay” value with 2H4 cells [2] was “A (Min suppression ≤−35: Augmentation (denoted as “A”; determined to have immunoaugmenting action))”. Besides, the “Evaluation of Combination” value with 2H4 cells [3] was “Pos”.
In the case of `Nc1ccn([C@@H]2O[C@H](CO)[C@@H](O)C2(F)F)c(=O)n1` [Gemcitabine hydrochloride], the “IL-2 Luc LTT” value in the data set on 2H4 cells [1] is “NLCT”. In addition, the “IL-2 Luc Assay” value in the data set with 2H4 cells [2] was “N (−35<Min % suppression <35: No Effect (denoted as “N”; determined to not affect immunity))”. For the same molecule, the “Evaluation of Combination” value in the data set with 2H4 cells [3] is reported as “Pos”.
Take `CS(=O)(=O)Nc1cc2occ(NC=O)c(=O)c2cc1Oc1ccccc1` [Igratimod]: the “IL-2 Luc LTT” value in the data set on 2H4 cells [1] is recorded as “NLCT”. Also, the “IL-2 Luc Assay” value with 2H4 cells [2] was “S (Min %; suppression ≥35: Suppression (denoted as “S”; determined to have immunosuppressive action))”. Further, the “Evaluation of Combination” value in the data set on 2H4 cells [3] was “Pos”.
As to `NNC(=O)c1ccncc1` [Isoniazid], the “IL-2 Luc LTT” value with 2H4 cells [1] is “I (−35<Min % suppression <35 and 0.7≤Min Inh-GAPLA: Inconclusive (denoted as “I”; possibly not measurable due to low water solubility))”. In addition, the “IL-2 Luc Assay” value in the data set on 2H4 cells [2] is recorded as “N (−35<Min % suppression <35: No Effect (denoted as “N”; determined to not affect immunity))”. Besides, the “Evaluation of Combination” value with 2H4 cells [3] is “Neg”.
`Cc1c(OCC(F)(F)F)ccnc1C[S+]([O-])c1nc2ccccc2[nH]1` (stereo not shown) [Lansoprazole]: in the data set with 2H4 cells [1], the “IL-2 Luc LTT” value is “NLCT”. In addition, the “IL-2 Luc Assay” value in the data set on 2H4 cells [2] is reported as “S (Min %; suppression ≥35: Suppression (denoted as “S”; determined to have immunosuppressive action))”. For the same molecule, the “Evaluation of Combination” value with 2H4 cells [3] is recorded as “Pos”.
The matching figures for `Cc1oncc1C(=O)Nc1ccc(C(F)(F)F)cc1` [Leflunomide]: “NLCT”, “S (Min %; suppression ≥35: Suppression (denoted as “S”; determined to have immunosuppressive action))” and “Pos”.
On to `O=C([O-])[O-].[Li+].[Li+]` [Lithium carbonate], for which, in the data set on 2H4 cells [1], the “IL-2 Luc LTT” value is “I (−35<Min % suppression <35 and 0.7≤Min Inh-GAPLA: Inconclusive (denoted as “I”; possibly not measurable due to low water solubility))”. In addition, the “IL-2 Luc Assay” value with 2H4 cells [2] was “N (−35<Min % suppression <35: No Effect (denoted as “N”; determined to not affect immunity))”. Moreover, in the data set with 2H4 cells [3], the “Evaluation of Combination” value is “Neg”.
With `OC[C@@H](O)[C@@H](O)[C@H](O)[C@H](O)CO` [Mannitol], the “IL-2 Luc LTT” value with 2H4 cells [1] is “I (−35<Min % suppression <35 and 0.7≤Min Inh-GAPLA: Inconclusive (denoted as “I”; possibly not measurable due to low water solubility))”. Also, in the data set on 2H4 cells [2], the “IL-2 Luc Assay” value is listed as “N (−35<Min % suppression <35: No Effect (denoted as “N”; determined to not affect immunity))”. Further, the “Evaluation of Combination” value in the data set with 2H4 cells [3] is recorded as “Neg”.
Regarding `CN(Cc1cnc2nc(N)nc(N)c2n1)c1ccc(C(=O)N[C@@H](CCC(=O)O)C(=O)O)cc1` [Methotrexate (MTX), Methotrexate], the “IL-2 Luc LTT” value with 2H4 cells [1] is listed as “NLCT”. Also, the “IL-2 Luc Assay” value in the data set with 2H4 cells [2] is given as “N (−35<Min % suppression <35: No Effect (denoted as “N”; determined to not affect immunity))”. The “Evaluation of Combination” value with 2H4 cells [3] was “Neg”.
On the same counts, the results for `CN(C)c1ccc(O)c2c1C[C@H]1C[C@H]3[C@H](N(C)C)C(O)=C(C(N)=O)C(=O)[C@@]3(O)C(O)=C1C2=O` [Minocycline (MC), Minocycline] are “NLCT”, “S (Min %; suppression ≥35: Suppression (denoted as “S”; determined to have immunosuppressive action))” and “Pos”.
For `NC(=O)c1ncn([C@@H]2O[C@H](CO)[C@@H](O)[C@H]2O)c1O` [Mizoribine (MZR), Mizoribine], in the data set with 2H4 cells [1], the “determination in IL-2 Luc LTT (in words)” value is recorded as “inhibit cell growth and/or metabolic activity”; the “IL-2 Luc LTT” value was “LCT (Min % suppression ≤−35 and Min Inh-GAPLA <0.7: Leukocyte toxic (denoted as “LCT”; determined to have cell growth inhibition action and/or metabolic activity inhibition action))”. In addition, in the data set on 2H4 cells [2], the “determination by the IL-2 Luc assay alone (in words)” value is reported as “determined to not have imnunosuppressive action” and the “IL-2 Luc Assay” value is listed as “N (−35<Min % suppression <35: No Effect (denoted as “N”; determined to not affect immunity))”. The “Evaluation of Combination” value in the data set on 2H4 cells [3] is “Pos”.
`COc1c(C)c2c(c(O)c1C/C=C(\C)CCC(=O)O)C(=O)OC2` [Mycophenolic acid (MPA), Mycophenolic acid]: in the data set on 2H4 cells [1], the “determination in IL-2 Luc LTT (in words)” value is “inhibit cell growth and/or metabolic activity”; the “IL-2 Luc LTT” value is “LCT (Min % suppression ≤−35 and Min Inh-GAPLA <0.7: Leukocyte toxic (denoted as “LCT”; determined to have cell growth inhibition action and/or metabolic activity inhibition action))”. Moreover, in the data set with 2H4 cells [2], the “determination by the IL-2 Luc assay alone (in words)” value was “determined to not have imnunosuppressive action” and the “IL-2 Luc Assay” value is reported as “A (Min suppression ≤−35: Augmentation (denoted as “A”; determined to have immunoaugmenting action))”. Further, the “Evaluation of Combination” value in the data set on 2H4 cells [3] was “Pos”.
In the case of `NC(=O)c1cccnc1` [Nicotinamide (NA), Nicotinamide], the “IL-2 Luc LTT” value in the data set on 2H4 cells [1] is “LCT (Min % suppression ≤−35 and Min Inh-GAPLA <0.7: Leukocyte toxic (denoted as “LCT”; determined to have cell growth inhibition action and/or metabolic activity inhibition action))”. In addition, in the data set on 2H4 cells [2], the “IL-2 Luc Assay” value was “A (Min suppression ≤−35: Augmentation (denoted as “A”; determined to have immunoaugmenting action))”. Further, the “Evaluation of Combination” value with 2H4 cells [3] is “Pos”.
For `CC(=O)O[C@H]1C(=O)[C@@]2(C)[C@H]([C@H](OC(=O)c3ccccc3)[C@]3(O)C[C@H](OC(=O)[C@H](O)[C@@H](NC(=O)c4ccccc4)c4ccccc4)C(C)=C1C3(C)C)[C@]1(OC(C)=O)CO[C@@H]1C[C@@H]2O` [Paclitaxel], the “IL-2 Luc LTT” value in the data set with 2H4 cells [1] is “LCT (Min % suppression ≤−35 and Min Inh-GAPLA <0.7: Leukocyte toxic (denoted as “LCT”; determined to have cell growth inhibition action and/or metabolic activity inhibition action))”. For the same molecule, the “IL-2 Luc Assay” value with 2H4 cells [2] is reported as “S (Min %; suppression ≥35: Suppression (denoted as “S”; determined to have immunosuppressive action))”. Moreover, the “Evaluation of Combination” value in the data set on 2H4 cells [3] is “Pos”.

The record behind these values is patent US20240060146A1, “CHEMICAL SUBSTANCE EVALUATION SYSTEM USING MULTICOLOR LIGHT-EMITTING CELLS” (TOHOKU UNIVERSITY, priority 2020, published 2024).
